# From US20160318844A1, “PROSTACYCLIN COMPOUNDS, COMPOSITIONS AND METHODS OF USE THEREOF” (Insmed Incorporated, priority 2015, published 2016)
# “Also recorded” adds a separate entry of the source. Like-named read-outs stand apart in the source and are kept apart here.
# Assays:
# [1] = Particle size characterization of treprostinil compositions (QELS); format: physicochemical; conditions: compositions of Table 3, FIG. 2
# Method: The compositions in Table 3 were subject to particle size characterization.
# All particle size measurements were performed using a Wyatt Technology Mobius™ Zeta Potential/Particle Sizing Instrument in Quasi-elastic light scattering (QELS) mode. Composition aliquots were diluted 10-fold in pre-filtered (0.02 μm pore filter) ultrapure of deionized H2O. Light scattering data was collected and converted into particle size and size distribution using Dynamics® v. 7.2.4 instrument software. Reported average particle size diameter is based on the cumulants model, which mathematically fits particle diffusion constants (determined by the raw scattering intensities of particles in a suspension) to obtain the particle size mean and a distribution of particle sizes around the mean diameter.
# Particle uniformity was determined using the software-calculated polydispersity (% PD). Polydispersity is defined as the standard deviation of the particle size distribution from the mean particle size value. % PD normalizes the polydispersity to the mean diameter by dividing by the mean size and multiplying by 100. […]
# Dynamics@ polydispersity parameter represents a monodisperse population of particles if % PD ≦15. A calculated % PD ≧57% represents a polydisperse population of particles.
# EP2 prostanoid receptor = target: T1, EP2 prostanoid receptor (Homo sapiens, UniProt P43116); test: GloSensor cAMP assay in CHO-K1 cells co-transfected with the EP2 receptor; format: cell-based; conditions: for change of potency with incubation time: cAMP dose response curves, 0.5 hr to 8 hr; for ranking of activity: kinetic profile at 10 μM and 5 μM
# T1 construct: host or cells: CHO-K1
# T1 sequence (P43116 whole entry): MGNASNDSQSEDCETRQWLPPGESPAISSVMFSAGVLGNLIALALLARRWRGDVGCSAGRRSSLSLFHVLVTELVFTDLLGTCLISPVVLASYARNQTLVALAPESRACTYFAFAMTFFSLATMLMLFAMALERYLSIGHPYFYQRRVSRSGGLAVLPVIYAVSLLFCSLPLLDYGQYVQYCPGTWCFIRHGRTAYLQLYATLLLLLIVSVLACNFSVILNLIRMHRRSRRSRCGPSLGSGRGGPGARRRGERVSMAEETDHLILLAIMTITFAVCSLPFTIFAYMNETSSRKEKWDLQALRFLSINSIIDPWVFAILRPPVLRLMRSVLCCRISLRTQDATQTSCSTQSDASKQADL
# Source text: cAMP is a second messenger involved in signal transduction of G-protein coupled receptors (GPCRs) acting through Gα-s and Gα-i proteins. Because the treprostinil receptor is a GPCR, the assay provides an indication of whether the respective prostacyclin compound (or metabolite thereof) binds its receptor and activates the GPCR cell signaling cascade. The GloSensorTM assay harnesses a genetically modified form of firefly luciferase into which a cAMP-binding protein moiety has been inserted. Upon binding of cAMP, a conformational change is induced leading to increased light output. The EP2 prostanoid receptor was cotransfected with the GioSensorm plasmid (Promega) into CHO-K cells as follows. CHO-K cells were harvested when the monoloayer was at 50-90% confluence. First, cells were washed with 5 mL PBS. […] The media was aspirated, and the cell pellet was resuspended in 10 mL of growth media. Cell number was determined using a hemacytometer. […] For small scale transfections of up to 20 wells, the pGLoSensor-22F cAMP plasmid (Promega, Cat #: E2301) (2 apg): […] Cat #: […] P2271) ratio was diluted to a final concentration of 12.6 ng/μL (total plasmid) in Opti-MEM I reduced-serum medium (Life Technologies, Cat #: 1985062). Next, 6 μL of FuGENE HD transfection reagent (Promega, Cat #: E2311) was added to 160 μL of diluted plasmid and mixed carefully by gentle pipetting. The complex was incubated at room temperature for 0 to 10 minutes, and then 8 μL of the complex was added per well of a 96 well white assay plate (Costar, Cat #: 3917) and gently mixed without disturbing the cell monolayer. […] Following incubation, cells were treated and analyzed. For larger scale transfections, the aforementioned steps were scaled up accordingly, and cells were frozen following the last incubation. In order to prepare frozen transfected CHO-K cells, the media was aspirated from culture flasks and cells were rinsed with 5 mL PBS. […] Cell number was determined using a hemacytometer. The media was aspirated, and the cell pellet was resuspended in freezing media (Millipore, cat #: S-002-SF) at 2.5×10^4 cells/vial. Transfected cells were incubated overnight at -80° C. before transfer to liquid nitrogen for long term storage. […] SH30071.03)). […] In preparation for cAMP measurement, the cells were equilibrated with the GloSensor cAMP reagent prior to treatment. For equilibration, the medium was carefully removed from the individual well. Next, 100 μL of equilibration medium ([…] of Glosensor Reagent stock solution (Promega, Cat #: E291), 10% FBS (Hydone, Cat #: SH30071.03) and 88% CO2 independent medium (Life Technologies, Cat #: 18045088)) was added per well of the 96-well plate, and added to the side of each well. The plate was then incubated for 2 hours at room temperature. A first pre-read measurement was taken using a microplate reader (MicroLumat Plus). Plates were incubated for an additional 10 minutes at room temperature, followed by a second pre-read measurement. […] Following treatment, each plate was read every 5 minutes for the duration of the assay using a microplate reader (MicroLumat Plus). In order to determine the fold change in cAMP relative to the control, the transfection efficiency was first determined by dividing the second pre-read measurement by the average of the corresponding pre-read measurements. Next, the normalized relative light units (RLUs) of the samples were determined by dividing the plate read measurement by the transfection efficiency. The fold change in cAMP relative to the control was then determined by dividing the normalized RLU of the samples by the normalized RLU of the control. The cAMP assay was validated using free treprostinil. […] Luminescence was then measured at room temperature. […] Nebulizer Aeroneb Pro (Aerogen) was used to nebulize treprostinil derivative compositions. Desired volume of the formulation (usually 3 mL) was loaded to the mesh head of the nebulizer. […]
# [2] = rat, in vivo
# Method: Nebulized treprostinil (TRE) solution and treprostinil alkyl ester formulations were administered (at 15 nmol/kg, or […] TRE equivalent) to anaesthetised-ventilated rats (6-hour studies) or to conscious rats by nose-only inhalation (24-hour studies). Blood and lung samples were collected at specified time points. TRE and treprostinil alkyl ester concentrations in blood plasma and lung tissue were measured by HPLC/MS/MS analysis.
# Male Sprague Dawley rats were placed in restraining tubes and exposed to nebulised drugs via the Jaeger-NYU Nose-Only Directed-Flow Inhalation Exposure System (CH Technologies, Westwood, N.J.) (FIG. 31). Test articles (6 mL at specific concentration) were nebulised using the Aeroneb nebuliser to deliver a predetermined estimated pulmonary dose. Blood and lung tissue samples were taken at selected times after nebulization of the drugs over a 24-hour period.
# [3] = Tolerability and pharmacokinetics in rats, inhaled C16-TR (T748) for 14-consecutive days; format: in vivo, rat; conditions: inhaled 0.6-18 μg/kg, formulation T748
# Method: Body weights were recorded daily and organ weights (lungs, heart, liver) were measured 24 hr. after the last drug dose.
# guinea pigs = test: Cough reflex in guinea pigs; format: in vivo, guinea pig
# Method: Aerosols were generated with an Ultra-Neb Pro nebulizer (nebulizer output 0.36 mL/min.) that was mixed with inspired air delivered at a rate of 2 L/min. The PBS or drugs were delivered for 10 min. and the number of coughs recorded during and for 20 min. after the delivery. Coughs were detected by visual observations, plethysmograph recordings and cough sounds.
# [4] = Treprostinil pharmacokinetics in anaesthetised, ventilated rats after nebulized dosing; format: in vivo, rat
# Method: Male Sprague Dawley rats were anaesthetised and prepared with endotracheal tube for ventilation. The right femoral vein was cannulated to facilitate blood collections. Terminal lung samples were taken for analysis only 6 hours after dosing. […] Systemic blood pressure (mSAP), heart rate (HR), and arterial oxygen saturation (Sa02). Physiologic parameters were measured during normoxia (fraction of inspired oxygen [FrO2]=0.21, SaO2≈90%) and for 2 to 3 hours during hypoxia (FrO2=0.10, SaO2≈50%).
# in vivo = conditions: dog
# Method: Twelve beagle dogs of either sex were randomly assigned to different inhaled doses of treprostinil in PBS or the compound of Formula (A) wherein R2=
# Formulations were nebulized with an Aeroneb nebulizer (MMAD: 2.5-4 μm) delivered into a 500 m1 expansion chamber. Formulations were nebulized for 2 min at ventilator settings of 90 ml/breath, 15 breaths/min (delivered volume=2.7 L) and collected on a filter. Drug amount (μg) on the filter was measured by HPLC to calculate the concentration of drug delivered through the ventilator circuit (μg/L).
# (§1) Dosimetry was performed in propofol-anesthetized dogs in which nebulized drugs were introduced into a mixing chamber interposed on the inspiratory limb of a canine respirator. Technical trials were performed before each experiment to measure the concentration of drug (μg/L) delivered for each breath. The inhaled drug dose (μg/kg) was calculated using the formula: Inhaled Drug Dose (μg/kg)=Drug Conc. (μg/L)×Minute Ventilation (L/min.)×Time (min.)/Body Weight (kg). […] Clinical signs were monitored over this 72 hr. period.
# (§2) Dosimetry was performed in propofol-anesthetized, artificially ventilated dogs in which nebulized drugs were introduced into a mixing chamber interposed on the inspiratory limb of the respirator. Technical trials were performed before each experiment measuring the concentration of drug (μg/L) per breath, minute ventilation and time required to achieve a targeted pulmonary dose. […] Clinical signs (cough, rapid shallow breathing, emesis and pale gums) were also monitored.
# beagle dogs = test: Clinical signs in dogs after inhalation
# Method: as §1, §2
# [5] = male, Sprague Dawley, rat, inhaled or intranasal, 6 ug/kg, plasma treprostinil, nebulized, estimated pulmonary dose of 6 μg/kg
molecule,measurement,setting,value
treprostinil decyl ester [Compound C10-TR],polydispersity (% PD),[1],around 15 % PD
same,duration of cAMP levels,"EP2 prostanoid receptor; 5 μM, FIG. 4 and FIG. 5",sustained significantly longer than free treprostinil
same,cAMP levels compared with free treprostinil,"EP2 prostanoid receptor; 10 μM, FIG. 3A",equivalent to free treprostinil
same,cAMP levels sustained for,"EP2 prostanoid receptor; 10 μM, FIG. 3A",at least 6 hours
same,cAMP response compared with free treprostinil,"EP2 prostanoid receptor; compositions, 5 μM, FIG. 4",greater than or equivalent to the response induced by free treprostinil
same,cAMP response levels,"EP2 prostanoid receptor; unformulated compounds, 5 μM, FIG. 5",equivalent to free treprostinil
"CCCCCCCCCCCCCCOC(=O)COc1cccc2c1C[C@H]1C[C@@H](O)[C@H](CC[C@@H](O)CCCCC)[C@H]1C2 [Compound C14-TR, tetradecyl-treprostinil]",immediately post dose (IPD),[2],0.0104 mg/kg
same,polydispersity (% PD),[1],around 15 % PD
same,change of potency with incubation time,EP2 prostanoid receptor,increases with incubation time
same,ranking of activity,EP2 prostanoid receptor,C12-TR>C14-TR>5-nonanyl-TR>C16-TR
"CCCCCCCCCCCCCCCCOC(=O)COc1cccc2c1C[C@H]1C[C@@H](O)[C@H](CC[C@@H](O)CCCCC)[C@H]1C2 [Compound C16-TR, hexadecyl-treprostinil]","tolerability, body weights and organ weights",[3],no tolerability issues or significant changes (relative to PBS) in body weights and organ weights; also recorded: well tolerated
same,change of potency with incubation time,EP2 prostanoid receptor,increases with incubation time
same,ranking of activity,EP2 prostanoid receptor,C12-TR>C14-TR>5-nonanyl-TR>C16-TR
"CCCCC[C@H](O)CC[C@@H]1[C@H]2Cc3cccc(OCC(=O)O)c3C[C@H]2C[C@H]1O [Treprostinil, (1R,2R,3aS,9aS)-[[2,3,3a,4,9,9a-hexahydro-2-hydroxy-1-[(3S)-3-hydroxyoctyl]-1H-benz[f]inden-5-yl]oxy]acetic acid]",exposure concentration that consistently evokes cough,guinea pigs; aerosol 1-300 μg/ml,≥ 30 µg/mL
same,cough bouts,guinea pigs; nebulized concentration of 30 μg/mL,1-4
same,guinea pigs with cough,"guinea pigs; nebulized concentration of 30 μg/mL, 10 min. exposure",7 of 7
same,total number of coughs,"guinea pigs; nebulized concentration of 30 μg/mL, average",36±9 coughs
same,time by which measurable levels of TRE were no longer seen in the lungs,[4],< 6 h
same,time up to which measurable levels of TRE were seen in blood plasma,[4],≤ 4 h
same,AUC(0-t),[4]; [5],2.13 ng·h/mL
same,Cmax,[4]; [5],3.37 ng/mL
same,Tmax,[4]; [5],3 min
same,Cmax,"[4]; male, Sprague Dawley, rat, inhaled, 6 ug/kg, plasma treprostinil, nebulized, estimated pulmonary dose of 6 μg/kg",3.5 ng/mL
same,Cmax,"in vivo; beagle, 18 ug/kg",5.9 ± 0.6 ng/mL
same,"treprostinil plasma Cmax, fold higher than with T623 at similar inhaled doses","in vivo; both, beagle",15-20 fold
same,Cmax,"in vivo; both, beagle, inhaled or intranasal, 5 ug/kg",2.7 ng/mL
same,Cmax,"in vivo; both, beagle, inhaled or intranasal, 16 ug/kg",5.9 ng/mL
same,period over which plasma levels of treprostinil were sustained,in vivo,disappeared within a few hours
same,cAMP levels sustained for,"EP2 prostanoid receptor; 10 μM, FIG. 3A",not exhibited
same,EC50,"EP2 prostanoid receptor; 4.5 hr incubation time, read-out: EC50 (μM) 4.5 hr",0.2 µM
same,EC50,"EP2 prostanoid receptor; 6.0 hr incubation time, read-out: EC50 (μM) 6.0 hr",0.29 µM
same,EC50,"EP2 prostanoid receptor; 8.0 hr incubation time, read-out: EC50 (μM) 8.0 hr",0.44 µM
same,EC50,"EP2 prostanoid receptor; EC50 (μM) 0.5 hr, 0.5 hr incubation time",0.18 µM
same,EC50,"EP2 prostanoid receptor; EC50 (μM) 1.0 hr, 1.0 hr incubation time",0.28 µM
same,EC50,"EP2 prostanoid receptor; EC50 (μM) 2.0 hr, 2.0 hr incubation time",0.15 µM
same,EC50,"EP2 prostanoid receptor; EC50 (μM) 3.0 hr, 3.0 hr incubation time",0.16 µM
same,EC50,"EP2 prostanoid receptor; EC50 (μM) 4.0 hr, 4.0 hr incubation time",0.19 µM
same,EC50,"EP2 prostanoid receptor; EC50 (μM) 5.0 hr, 5.0 hr incubation time",0.26 µM
same,EC50,"EP2 prostanoid receptor; EC50 (μM) 7.0 hr, 7.0 hr incubation time",0.46 µM
same,Max cAMP level (Fold),"EP2 prostanoid receptor; Table 4, compositions of FIGS. 3A-3C (10 μM, 1 μM, 0.1 μM), 8 hours time course",~16 Fold
same,Max cAMP level (Fold),"EP2 prostanoid receptor; Table 5, 5 μM, FIG. 4, 8 hours time course",~14 Fold
same,Max cAMP level (Fold),"EP2 prostanoid receptor; Table 6, effect of nebulization, head (5 μM), FIG. 6",~15 Fold
same,change of potency with incubation time,EP2 prostanoid receptor,potency decreases with increasing incubation time
same,"respiratory irritation (coughing, rapid shallow breathing)","beagle dogs; T623 inhaled doses as high as 46 μg/kg, treprostinil 5 and 16 μg/kg",present during the recovery period
same,adverse clinical signs,beagle dogs; targeted dose of 18 μg/kg,Adverse clinical signs were seen
